ChEMBL document CHEMBL3297661, “1-Substituted-5-[(3,5-dinitrobenzyl)sulfanyl]-1H-tetrazoles and their isosteric analogs: A new class of selective antitubercular agents active against drug-susceptible and multidrug-resistant mycobacteria” (Eur J Med Chem, 2014)
Values after ≈ are worked out from the molar mass of the structure shown.

How the values were obtained:
Type in all cases: functional
Mycobacterium kansasii [1] = assay: Antimycobacterial activity against Mycobacterium kansasii CNCTC My 235/80 after 7 days by micromethod; settings: CNCTC My 235/80, 168 h
Mycobacterium kansasii [2] = assay: Antimycobacterial activity against Mycobacterium kansasii CNCTC My 235/80 after 21 days by micromethod; settings: CNCTC My 235/80, 504 h
Mycobacterium kansasii [3] = assay: Antimycobacterial activity against Mycobacterium kansasii 6509/96 after 14 days by micromethod; settings: 6509/96, 336 h
Mycobacterium kansasii [4] = assay: Antimycobacterial activity against Mycobacterium kansasii 6509/96 after 21 days by micromethod; settings: 6509/96, 504 h
[5] = system: Mycobacterium tuberculosis; assay: Antimycobacterial activity against Mycobacterium tuberculosis CNCTC My 331/88 after 21 days by micromethod; settings: CNCTC My 331/88, 504 h
Mycobacterium kansasii [6] = assay: Antimycobacterial activity against Mycobacterium kansasii 6509/96 after 7 days by micromethod; settings: 6509/96, 168 h
Mycobacterium avium [7] = assay: Antimycobacterial activity against Mycobacterium avium CNCTC My 330/88 after 21 days by micromethod; settings: CNCTC My 330/88, 504 h
Mycobacterium kansasii [8] = assay: Antimycobacterial activity against Mycobacterium kansasii CNCTC My 235/80 after 14 days by micromethod; settings: CNCTC My 235/80, 336 h
[9] = system: Mycobacterium tuberculosis; assay: Antimycobacterial activity against Mycobacterium tuberculosis CNCTC My 331/88 after 14 days by micromethod; settings: CNCTC My 331/88, 336 h
Mycobacterium avium [10] = assay: Antimycobacterial activity against Mycobacterium avium CNCTC My 330/88 after 14 days by micromethod; settings: CNCTC My 330/88, 336 h

| Compound | MIC (Mycobacterium kansasii [1]) [µM] | MIC (Mycobacterium kansasii [2]) [µM] | MIC (Mycobacterium kansasii [3]) [µM] | MIC (Mycobacterium kansasii [4]) [µM] | MIC [5] [µM] | MIC (Mycobacterium kansasii [6]) [µM] | MIC (Mycobacterium avium [7]) [µM] | MIC (Mycobacterium kansasii [8]) [µM] | MIC [9] [µM] | MIC (Mycobacterium avium [10]) [µM] |
| --- | --- | --- | --- | --- | --- | --- | --- | --- | --- | --- |
| O=[N+]([O-])c1cc(CSc2nnnn2-c2ccc(Br)cc2)cc([N+](=O)[O-])c1 | 1 (≈ 0.437 µg/mL) | 2 (≈ 0.874 µg/mL) | 4 (≈ 1.75 µg/mL) | 4 (≈ 1.75 µg/mL) | 1 (≈ 0.437 µg/mL) | 2 (≈ 0.874 µg/mL) | 125 (≈ 54.7 µg/mL) | 2 (≈ 0.874 µg/mL) | 1 (≈ 0.437 µg/mL) | 125 (≈ 54.7 µg/mL) |
| N#CSCc1cc([N+](=O)[O-])cc([N+](=O)[O-])c1 | 2 (≈ 0.478 µg/mL) | 16 (≈ 3.83 µg/mL) | 8 (≈ 1.91 µg/mL) | 16 (≈ 3.83 µg/mL) | 4 (≈ 0.957 µg/mL) | 4 (≈ 0.957 µg/mL) | 62 (≈ 14.8 µg/mL) | 8 (≈ 1.91 µg/mL) | 4 (≈ 0.957 µg/mL) | 32 (≈ 7.65 µg/mL) |
| COc1ccc(-n2nnnc2[S+]([O-])Cc2cc([N+](=O)[O-])cc([N+](=O)[O-])c2)cc1 (centres undefined) | 62 (≈ 25.1 µg/mL) | 125 (≈ 50.5 µg/mL) | 125 (≈ 50.5 µg/mL) | 125 (≈ 50.5 µg/mL) | 62 (≈ 25.1 µg/mL) | 32 (≈ 12.9 µg/mL) | 250 (≈ 101 µg/mL) | 125 (≈ 50.5 µg/mL) | 62 (≈ 25.1 µg/mL) | 250 (≈ 101 µg/mL) |
| O=[N+]([O-])c1cc(CSCc2ccccc2)cc([N+](=O)[O-])c1 | 125 (≈ 38 µg/mL) | 125 (≈ 38 µg/mL) | 125 (≈ 38 µg/mL) | 125 (≈ 38 µg/mL) | 250 (≈ 76.1 µg/mL) | 125 (≈ 38 µg/mL) | 125 (≈ 38 µg/mL) | 125 (≈ 38 µg/mL) | 250 (≈ 76.1 µg/mL) | 125 (≈ 38 µg/mL) |
| O=[N+]([O-])c1cc(CSc2nnnn2-c2ccc(Cl)cc2)cc([N+](=O)[O-])c1 | 2 (≈ 0.786 µg/mL) | 4 (≈ 1.57 µg/mL) | 4 (≈ 1.57 µg/mL) | 4 (≈ 1.57 µg/mL) | 2 (≈ 0.786 µg/mL) | 2 (≈ 0.786 µg/mL) | 125 (≈ 49.1 µg/mL) | 4 (≈ 1.57 µg/mL) | 1 (≈ 0.393 µg/mL) | 125 (≈ 49.1 µg/mL) |
| O=[N+]([O-])c1cc(CSc2nnnn2-c2cccc(F)c2)cc([N+](=O)[O-])c1 | 4 (≈ 1.51 µg/mL) | 8 (≈ 3.01 µg/mL) | 8 (≈ 3.01 µg/mL) | 8 (≈ 3.01 µg/mL) | 32 (≈ 12 µg/mL) | 4 (≈ 1.51 µg/mL) | 250 (≈ 94.1 µg/mL) | 4 (≈ 1.51 µg/mL) | 16 (≈ 6.02 µg/mL) | 250 (≈ 94.1 µg/mL) |
| CCCCCCn1nnnc1[Se]Cc1cc([N+](=O)[O-])cc([N+](=O)[O-])c1 | 1 (≈ 0.413 µg/mL) | 2 (≈ 0.827 µg/mL) | 4 (≈ 1.65 µg/mL) | 4 (≈ 1.65 µg/mL) | 1 (≈ 0.413 µg/mL) | 2 (≈ 0.827 µg/mL) | 32 (≈ 13.2 µg/mL) | 2 (≈ 0.827 µg/mL) | 1 (≈ 0.413 µg/mL) | 16 (≈ 6.61 µg/mL) |
| COc1cccc(-n2nnnc2SCc2cc([N+](=O)[O-])cc([N+](=O)[O-])c2)c1 | 125 (≈ 48.5 µg/mL) | 125 (≈ 48.5 µg/mL) | 125 (≈ 48.5 µg/mL) | 125 (≈ 48.5 µg/mL) | 4 (≈ 1.55 µg/mL) | 125 (≈ 48.5 µg/mL) | 125 (≈ 48.5 µg/mL) | 125 (≈ 48.5 µg/mL) | 2 (≈ 0.777 µg/mL) | 125 (≈ 48.5 µg/mL) |
| NNC(=O)c1ccncc1 [ISONIAZID] | > 250 |  | 4 (≈ 0.549 µg/mL) | 4 (≈ 0.549 µg/mL) | 1 (≈ 0.137 µg/mL) | 4 (≈ 0.549 µg/mL) | > 250 | > 250 | 0.5 (≈ 0.0686 µg/mL) | > 250 |
| CCCCCCn1nnnc1SCc1cc([N+](=O)[O-])cc([N+](=O)[O-])c1 | 2 (≈ 0.733 µg/mL) | 8 (≈ 2.93 µg/mL) | 4 (≈ 1.47 µg/mL) | 8 (≈ 2.93 µg/mL) | 2 (≈ 0.733 µg/mL) | 2 (≈ 0.733 µg/mL) | 62 (≈ 22.7 µg/mL) | 4 (≈ 1.47 µg/mL) | 1 (≈ 0.366 µg/mL) | 32 (≈ 11.7 µg/mL) |
| O=[N+]([O-])c1cc(C[S+]([O-])c2nnnn2-c2ccccc2)cc([N+](=O)[O-])c1 (centres undefined) | 62 (≈ 23.2 µg/mL) | 250 (≈ 93.6 µg/mL) | 250 (≈ 93.6 µg/mL) | 250 (≈ 93.6 µg/mL) | 62 (≈ 23.2 µg/mL) | 125 (≈ 46.8 µg/mL) | 125 (≈ 46.8 µg/mL) | 250 (≈ 93.6 µg/mL) | 62 (≈ 23.2 µg/mL) | 125 (≈ 46.8 µg/mL) |
| O=[N+]([O-])c1cc(CSc2nnnn2-c2ccc(F)cc2)cc([N+](=O)[O-])c1 | 2 (≈ 0.753 µg/mL) | 4 (≈ 1.51 µg/mL) | 8 (≈ 3.01 µg/mL) | 16 (≈ 6.02 µg/mL) | 2 (≈ 0.753 µg/mL) | 4 (≈ 1.51 µg/mL) | 250 (≈ 94.1 µg/mL) | 4 (≈ 1.51 µg/mL) | 2 (≈ 0.753 µg/mL) | 250 (≈ 94.1 µg/mL) |
| O=[N+]([O-])c1cc(C[Se]c2nnnn2-c2ccc(Br)cc2)cc([N+](=O)[O-])c1 | 2 (≈ 0.968 µg/mL) | 4 (≈ 1.94 µg/mL) | 4 (≈ 1.94 µg/mL) | 8 (≈ 3.87 µg/mL) | 2 (≈ 0.968 µg/mL) | 2 (≈ 0.968 µg/mL) | 125 (≈ 60.5 µg/mL) | 4 (≈ 1.94 µg/mL) | 2 (≈ 0.968 µg/mL) | 125 (≈ 60.5 µg/mL) |
| O=[N+]([O-])c1ccc(CSc2nnnn2-c2ccccc2)c([N+](=O)[O-])c1 | 16 (≈ 5.73 µg/mL) | 62 (≈ 22.2 µg/mL) | 32 (≈ 11.5 µg/mL) | 32 (≈ 11.5 µg/mL) | 16 (≈ 5.73 µg/mL) | 8 (≈ 2.87 µg/mL) | 62 (≈ 22.2 µg/mL) | 62 (≈ 22.2 µg/mL) | 8 (≈ 2.87 µg/mL) | 32 (≈ 11.5 µg/mL) |
| CC(=O)SCc1cc([N+](=O)[O-])cc([N+](=O)[O-])c1 | 16 (≈ 4.1 µg/mL) | 125 (≈ 32 µg/mL) | 125 (≈ 32 µg/mL) | 500 (≈ 128 µg/mL) | 16 (≈ 4.1 µg/mL) | 62 (≈ 15.9 µg/mL) | 125 (≈ 32 µg/mL) | 32 (≈ 8.2 µg/mL) | 8 (≈ 2.05 µg/mL) | 62 (≈ 15.9 µg/mL) |
